Among the data in patent publication US20230106583A1, “HETEROARYL COMPOUNDS” (Vivace Therapeutics, Inc., priority 2019, published 2023) are IC50 values, retold here.

The test system of this experiment is HEK293T cells stably transfected with 8XTBD luciferase reporter and pRLTK. As to the kind of experiment: YAP Reporter Assay (8XTBD-driven firefly luciferase). Type of experiment: cell-based. To be noted: Homo sapiens, HEK-293T; HEK293T 8XTBD luciferase reporter; 24-hr incubation with compounds; top concentration 3 μM, 10 points. Here is the method: HEK293T cells stably transfected with 8XTBD luciferase reporter and pRLTK in 384-well plates were treated with the test compounds, starting from 3 μM (final concentration in assay plate), 1:3 dilution, and 10 points in quadruplicates. Post 24-hr incubation with compounds at 37° C. and 5% CO2, cells were lysed and 8XTBD-driven firefly luciferase and control TK-driven renilla luciferase activities were measured using Promega Dual-Luciferase Reporter Assay System.
Reagents: The reagents used for this study are: DMEM: Invitrogen #11960077, Dual-Glo Luciferase Assay System: Promega-E2980, Puromycin Dihydrochloride: Invitrogen-A1113803, 384-well plate: PerkinElmer-6007480, L-GLUTAMINE: Invitrogen-25030164, Hygromycin B: Invitrogen-10687010, and Penicillin-Streptomycin: Merk-TMS-AB2-C
Media: The media used for this assay were: Culture Medium: DMEM+1 ug/mL puromycin+200 ug/mL hygromycin (with 10% FBS+1 mM L-glutamine); and Assay Medium: DMEM (with 10% FBS+1 mM L-glutamine+1×P/S).
Cell Plating: The appropriate media was warmed at 37° C. by water bath: Culture Medium, Assay Medium, 1*D-PBS, 0.05% trypsin-EDTA. The cells were trypsinized after removing all media, then washed with 1*sterile D-PBS and then with 2 ml 0.05% trypsin-EDTA. The cells were then incubated at RT for one minute. Then 10 ml/75 cm2 flask Assay Medium was added to each flask. Using a 10 ml pipette, the cells were then gently resuspended in the media, until the clumps completely disappeared. The cells were then transferred into 50 ml centrifuge tubes and were centrifuged at 800 rpm for 5 mins. The medium was removed and the cells were resuspended with Assay Medium. An aliquot of cells was used to count the cell density (cells/ml). The cell suspension was then diluted with Assay Medium to a concentration of 6×10^4 cells/ml. 50 ul cells suspension was then plated to 384-well plate (PerkinElmer-6007480), 3×10^3 cells/well and the cells were incubated in an incubator at 37° C., 5% CO2.
Compound Treatment: In the afternoon (incubation of the plate with 3-4 hrs), the test compounds were added by Echo, starting from 3 uM (final concentration in the assay plate), 1:3 dilution, 10 points, quadruplicates. The plate was placed at 37° C., 5% CO2 incubator for 24 hrs.
Detection: The Dual-Glo Luciferase Reagent was prepared by transferring the contents of one bottle of Dual-Glo Luciferase Buffer to one bottle of Dual-Glo Luciferase Substrate to create the Dual-Glo Luciferase Reagent. Mixing was performed by inversion until the substrate was thoroughly dissolved. After mixing, the reagent was aliquoted into 15 ml tubes. In the afternoon (24 hrs post compound treatment), the DMEM+medium in the 384 well plates were aspirated by Microplate Washer.
Measuring firefly luciferase activity: 20 ul Dual-Glo Luciferase Reagent was added to the 384-well plates. The plates were protected from light to prevent interference with the assay. The plates were shaken for 1 min followed centrifuging plates at 1000 rpm for 30 seconds. After waiting at least 10 minutes, the firefly luminescence was measured by Envision.
Measuring renilla luciferase activity: 20 ul Stop-Glo Reagent was added to the 384-well plates. The plates were shaken for 1 min and then centrifuged at 1000 rpm for 30 seconds. After waiting at least 10 minutes, the renilla luminescence was measured by Envision.
Compound IC50 and maximum inhibition on the firefly luciferase and renilla luciferase activities were reported separately.
On the technique in general: A reporter such as luciferase makes a cellular process visible.
The IC50 is the midpoint of a concentration-inhibition curve. In the case of `CC1(c2nnc(-c3cccnc3Nc3ccc(C(F)(F)F)cc3)o2)CC(N)=NC1=O` (stereo not shown) [Compound 38, 2-amino-4-methyl-4-[5-[2-[4-(trifluoromethyl)anilino]-3-pyridyl]-1,3,4-oxadiazol-2-yl]-3H-pyrrol-5-one], the IC50 is no more than 100 nM. To `CC[C@]1(c2nnc(-c3cccnc3Nc3ccc(C(F)(F)F)cc3)o2)CCNC1=O` [Compound 33, (3R)-3-ethyl-3-[5-[2-[4-(trifluoromethyl)anilino]-3-pyridyl]-1,3,4-oxadiazol-2-yl]pyrrolidin-2-one] belongs no more than 100 nM; to `C[C@@]1(c2nnc(-c3cccnc3Nc3ccc(C(F)(F)F)cc3)o2)CCNC1=O` [Compound 13, (S)-3-methyl-3-(5-(2-((4-(trifluoromethyl)phenyl)amino)pyridin-3-yl)-1,3,4-oxadiazol-2-yl)pyrrolidin-2-one], no more than 100 nM; to `CC[C@@]1(c2nnc(-c3cccnc3Nc3ccc(S(F)(F)(F)(F)F)cc3)o2)CCNC1=O` [Compound 24, (3S)-3-ethyl-3-[5-[2-[4-(pentafluoro-λ^6-sulfanyl)anilino]-3-pyridyl]-1,3,4-oxadiazol-2-yl]pyrrolidin-2-one], no more than 100 nM. To `C[C@@]1(n2nnc(-c3cccnc3Nc3ccc(C(F)(F)F)cc3)n2)CCNC1=O` [Compound 43, (3R)-3-methyl-3-[5-[2-[4-(trifluoromethyl)anilino]-3-pyridyl]tetrazol-2-yl]pyrrolidin-2-one] belongs no more than 100 nM; to `C[C@@]1(c2nnc(-c3cccnc3Nc3ccc(S(F)(F)(F)(F)F)cc3)o2)CCNC1=O` [Compound 36, (3S)-3-methyl-3-[5-[2-[4-(pentafluoro-λ^6-sulfanyl)anilino]-3-pyridyl]-1,3,4-oxadiazol-2-yl]pyrrolidin-2-one], no more than 100 nM; to `CCN(Cc1nnc(-c2cccnc2Nc2ccc(C(F)(F)F)cc2)o1)C(=O)OC(C)(C)C` [Compound 8, tert-butyl N-ethyl-N-[[5-[2-[4-(trifluoromethyl)anilino]-3-pyridyl]-1,3,4-oxadiazol-2-yl]methyl]carbamate], 1000 to 3000 nM. To `CC[C@]1(c2nnc(-c3cccnc3Nc3ccc(S(F)(F)(F)(F)F)cc3)o2)CCCNC1=O` [Compound 22, (3R)-3-ethyl-3-[5-[2-[4-(pentafluoro-λ6-sulfanyl)anilino]-3-pyridyl]-1,3,4-oxadiazol-2-yl]piperidin-2-one] belongs 100 to 1000 nM; to `C[C@@]1(n2nnc(-c3cccnc3Nc3ccc(S(F)(F)(F)(F)F)cc3)n2)CCNC1=O` [Compound 27, (3R)-3-methyl-3-[5-[2-[4-(pentafluoro-λ^6-sulfanyl)anilino]-3-pyridyl]tetrazol-2-yl]pyrrolidin-2-one], 100 to 1000 nM. As for `CN(C#N)Cc1nnc(-c2cccnc2Nc2ccc(C(F)(F)F)cc2)o1` [Compound 6, methyl-[[5-[2-[4-(trifluoromethyl)anilino]-3-pyridyl]-1,3,4-oxadiazol-2-yl]methyl]cyanamide], the IC50 was no more than 100 nM.
